Source: patent US9828364B2, “Pyrazole compounds as BTK inhibitors” (Boehringer Ingelheim International GmbH, priority 2014, dated 2017)
pIC50: −log10 of the molar value.

Legend:
[1] = molecular target: T1, full-length human His-tagged BTK (Homo sapiens, UniProt Q06187); test: BTK HTRF assay (Cisbio KinEASE-TK); format: biochemical; conditions: 6 nM BTK, 30 uM ATP, 15 min preincubation
T1 construct: 6 nM of full-length human His-tagged BTK (Life Technologies cat # PV3587); His; purchased Life Technologies PV3587
Method: Description of Biological Properties BTK Assay
An HTRF assay (Cisbio KinEASE-TK cat #62TK0PEC) was performed to quantitate the ability of test compounds to inhibit BTK mediated phosphorylation of substrate. Assays were assembled in 384 well plates where 6 nM of full-length human His-tagged BTK (Life Technologies cat # PV3587) and test compound at varying concentrations were preincubated for 15 minutes at 28° C. Then, 1 uM of TK substrate-biotin and 30 uM ATP were added and incubated for an additional 30 minutes at 28° C. Phospohrylation was detected by adding 62.5 nM Streptavidin-XL665 and TK-Antibody Cryptate diluted 1:100 in HTRF detection buffer (Cisbio cat #62SDBRDF) and incubated for 60 minutes at RT. The plate was read on an Envision plate reader and the fluorescence is measured at 620 nm (cryptate) and 665 nm (XL665). A ratio is calculated (665/620) and converted to POC relative to control and blank wells.
50 mM HEPES (Invitrogen #15630), 0.01% Brij-35 (sigma #B4184), 10 mM MgCl2 (Sigma M1028), 1 mM EGTA (Ambion AM9262) and 100 uM sodium orthovanedate (Sigma S6508), 1 mM DTT (Sigma D5545) and 10 nM supplement enzyme buffer (Cisbio cat#61SEBALB).

[2] = test system: BTK activity measured by IL-6 production in primary CD19+ cells; test: Inhibition of IL-6 production in B cells co-stimulated with ODN 2006 and anti-hIgD; format: cell-based; conditions: B-cell, anti-human IgD + ODN 2006, 18-24 hours
Method: (§1) The compounds described herein show a range of selectivities against EGFR as measured in cellular assays (BTK activity measured by IL-6 production in primary CD19^+ cells; EGFR activity measured by EGFR phosphorylation in A431 cells).
Inhibition of IL-6 Production in B Cells Co-Stimulated with ODN 2006 and Anti-hIgD
Primary CD19+ B cells (AllCells # PB010F) are thawed and plated in RPMI containing 10% HI FBS in a 384-well tissue cultured plate at 20,000 cells/well. The cells are treated with test compound (0.5% DMSO final concentration) and incubated for 1 hour at 37° C., 5% CO2. Cells are then stimulated with 5 ug/mL Goat F(ab′)2 anti-human IgD (SouthernBiotech #2032) and 2 uM ODN 2006 (InvivoGen # tlrl-2006) and incubated for 18-24 hours at 37° C., 5% CO2. IL-6 in the supernatant is measured using Meso Scale Discovery kit # K211AKB-6.

[3] = test system: EGFR phosphorylation in A431 cells; test: Inhibition of EGFR autophosphorylation in A431 human epithelial cells stimulated with EGF; format: cell-based; conditions: A-431, 16 hours compound, EGF 60 ng/mL 10 minutes, read-out: A431 p-EGFR IC50
Text: as §1
Inhibition of EGFR Autophosphorylation in A431 Human Epithelial Cells Stimulated with Epithelial Growth Factor
A431 cells (ATCC # CRL-1555 FZ) are thawed and plated in DMEM containing 10% FBS in a 384-well tissue culture treated plate at 15,000 cells/well. After incubating for 24 hours at 37° C., 5% CO2, the cells are treated with test compound (1% DMSO final concentration) and incubated for 16 hours at 37° C., 5% CO2. EGF (Millipore, 01-107) is added at a final concentration of 60 ng/mL and incubated for 10 minutes. The medium is removed, the cells are lysed, and phospho EGFR is measured (Meso Scale Diagnostics, N31CB-1).

T1 sequence (Q06187 whole entry): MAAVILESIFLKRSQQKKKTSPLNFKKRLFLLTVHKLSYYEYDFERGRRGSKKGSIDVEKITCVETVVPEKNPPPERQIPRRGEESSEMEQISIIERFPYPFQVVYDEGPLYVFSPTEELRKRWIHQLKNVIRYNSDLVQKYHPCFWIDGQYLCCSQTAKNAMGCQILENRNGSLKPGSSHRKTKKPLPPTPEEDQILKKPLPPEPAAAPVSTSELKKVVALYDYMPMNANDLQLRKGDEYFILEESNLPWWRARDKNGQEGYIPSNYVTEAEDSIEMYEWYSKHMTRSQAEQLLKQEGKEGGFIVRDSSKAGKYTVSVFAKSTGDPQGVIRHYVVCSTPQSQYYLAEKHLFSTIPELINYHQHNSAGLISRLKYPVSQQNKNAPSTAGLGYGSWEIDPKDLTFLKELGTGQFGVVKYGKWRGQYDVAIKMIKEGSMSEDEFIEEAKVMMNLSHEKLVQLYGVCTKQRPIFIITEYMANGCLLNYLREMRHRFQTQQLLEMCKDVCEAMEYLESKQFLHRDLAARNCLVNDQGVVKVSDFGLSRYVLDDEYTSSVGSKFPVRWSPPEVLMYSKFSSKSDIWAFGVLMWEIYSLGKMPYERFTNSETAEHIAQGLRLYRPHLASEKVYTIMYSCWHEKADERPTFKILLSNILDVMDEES

Row | pIC50 [1] | pIC50 [2] | pIC50 [3] | SMILES
1 | 9.05 | – | – | CCC#CC(=O)N1CC[C@]2(C1)C[C@H](n1nc(-c3ccc(COC)cc3)c(C(N)=O)c1N)C2 [Example 12]
2 | 8.70 | 8.62 | 5.21 | CC#CC(=O)N1CC[C@]2(C1)C[C@H](n1nc(-c3ccc(COC)cc3)c(C(N)=O)c1N)C2 [Example 5]
3 | 7.00 | – | – | C=CC(=O)N1CC2(CC(n3nc(-c4ccc(C(C)OCC)cc4)c(C(N)=O)c3N)C2)C1 (stereo not shown) [Example 1]
4 | 8.62 | – | – | CC#CC(=O)N1CC[C@]2(C1)C[C@H](n1nc(-c3ccc(C4(CO)CC4)cc3)c(C(N)=O)c1N)C2 [Example 26]
5 | 8.66 | – | – | CC#CC(=O)N1CC[C@]2(C1)C[C@H](n1nc(-c3ccc(COCC)cc3)c(C(N)=O)c1N)C2 [Example 11]
6 | 6.35 | – | – | C=CC(=O)N1CCC[C@]2(C1)C[C@H](n1nc(-c3ccc(COC)cc3)c(C(N)=O)c1N)C2 [Example 7]
7 | 7.17 | – | – | C=CC(=O)N1CCC[C@]2(C1)C[C@@H](n1nc(-c3ccc(C(O)C4CC4)cc3)c(C(N)=O)c1N)C2 (stereo partly shown) [Example 23]
8 | 8.44 | – | – | CC#CC(=O)N1CC[C@]2(C1)C[C@H](n1nc(-c3ccc(C(C)OCC)cc3)c(C(N)=O)c1N)C2 (stereo partly shown) [Example 15]
9 | 7.59 | – | – | C=CC(=O)N1CC[C@]2(C1)C[C@H](n1nc(-c3ccc(COC)cc3)c(C(N)=O)c1N)C2 [Example 4]

The next lines start with the compound.

Row | SMILES | pIC50 [1] | pIC50 [2] | pIC50 [3]
10 | C=CC(=O)N1CC[C@]2(C1)C[C@H](n1nc(-c3ccc(CO)cc3)c(C(N)=O)c1N)C2 [Example 20] | 7.18 | – | –
11 | C=CC(=O)N1CCC[C@]2(C1)C[C@@H](n1nc(-c3ccc(COC)cc3)c(C(N)=O)c1N)C2 [Example 6] | 6.34 | – | –
12 | C=CC(=O)N1CC2(CC(n3nc(-c4ccc(C5(CO)CC5)cc4)c(C(N)=O)c3N)C2)C1 [Example 24] | 6.62 | – | –
13 | COCc1ccc(-c2nn([C@H]3C[C@@]4(CCN(C(=O)C#CC5CCC5)C4)C3)c(N)c2C(N)=O)cc1 [Example 14] | 9.22 | – | –
14 | CC#CC(=O)N1CCC[C@]2(C1)C[C@H](n1nc(-c3ccc(C(O)C4CC4)cc3)c(C(N)=O)c1N)C2 (stereo partly shown) [Example 22] | 7.23 | – | –
15 | CC#CC(=O)N1CC[C@]2(C1)C[C@H](n1nc(-c3ccc(C(C)OC)cc3)c(C(N)=O)c1N)C2 (stereo partly shown) [Example 10] | 8.03 | – | –
16 | COCc1ccc(-c2nn([C@H]3C[C@@]4(CCN(C(=O)C#CC5CC5)C4)C3)c(N)c2C(N)=O)cc1 [Example 13] | 9.15 | – | –
17 | CCC#CC(=O)N1CC[C@]2(C1)C[C@H](n1nc(-c3ccc(C(C)OCC)cc3)c(C(N)=O)c1N)C2 (stereo partly shown) [Example 16] | 8.74 | – | –
18 | CC#CC(=O)N1CCC[C@]2(C1)C[C@H](n1nc(-c3ccc(COC)cc3)c(C(N)=O)c1N)C2 [Example 9] | 8.09 | 8.20 | < 5.00
19 | CC#CC(=O)N1CC[C@]2(C1)C[C@H](n1nc(-c3ccc(CCO)cc3)c(C(N)=O)c1N)C2 [Example 25] | 8.85 | 8.15 | < 5.00
20 | C=CC(=O)N1CC2(CC(n3nc(-c4ccc(C(C)OC)cc4)c(C(N)=O)c3N)C2)C1 (stereo not shown) [Example 2] | 6.70 | – | –
21 | CC#CC(=O)N1CCC[C@]2(C1)C[C@@H](n1nc(-c3ccc(COC)cc3)c(C(N)=O)c1N)C2 [Example 8] | 6.80 | – | –
22 | CC#CC(=O)N1CC[C@]2(C1)C[C@H](n1nc(-c3ccc(CO)cc3)c(C(N)=O)c1N)C2 [Example 21] | 8.60 | – | –
23 | CC#CC(=O)N1CC[C@]2(C1)C[C@H](n1nc(-c3ccc(S(C)(=O)=O)cc3)c(C(N)=O)c1N)C2 [Example 27] | 7.92 | 7.03 | < 5.00
24 | CC#CC(=O)N1CC[C@]2(C1)C[C@H](n1nc(-c3ccc(C(O)C(C)C)cc3)c(C(N)=O)c1N)C2 (stereo partly shown) [Example 19] | 8.35 | 8.29 | 5.52
25 | C=CC(=O)N1CC[C@]2(C1)C[C@H](n1nc(-c3ccc(C(O)C(C)C)cc3)c(C(N)=O)c1N)C2 (stereo partly shown) [Example 18] | 6.82 | – | –
26 | CCOC(C)c1ccc(-c2nn([C@H]3C[C@@]4(CCN(C(=O)C#CC5CC5)C4)C3)c(N)c2C(N)=O)cc1 (stereo partly shown) [Example 17] | 8.92 | – | –
27 | C=CC(=O)N1CC2(CC(n3nc(-c4ccc(COC)cc4)c(C(N)=O)c3N)C2)C1 [Example 3] | 7.03 | – | –
